A word on the viability: it is a read-out of living cells in per cent, often relative to untreated cells.

From paper PMC12040169 (PLOS Biology, 2025) come the findings set out here.

The first series is described as follows: in vitro. The settings on record: human, hela cells.
For `C=CCSc1nnc(OC(=O)N(C)C)n1-c1ccc(Cl)cc1` [CBK004817], the viability at 28.5 h, 10 µM came out at 90.8%.

The same series, now with this note: human, hela cells, % viability.
In the case of `CC(C)(C)OC(=O)N1CCN(S(=O)(=O)c2ccc(Cl)c([N+](=O)[O-])c2)CC1` [CBK003165], the viability at 28.5 h, 10 µM was determined as 100%.
The same measure, in the same setting: the figure for `COC(=O)C1=COC(C)C2CN3CCC4(NC(=O)c5c4ccc(OC)c5OC)C3CC12` (stereo not drawn) [CBK003303] is 107%; for `O=C(N[C@H]1CCCC[C@H]1N1CCCC1)N[C@H]1CCCC[C@H]1N1CCCC1` [CBK003419] it is 115%; for `O=C(O)c1cccc(Cn2ccc3c(F)cccc32)c1` [CBK003453] it is 95.9%.
Regarding `Oc1cc(C(F)(F)F)nc(NCc2ccc3ccccc3c2)n1` [CBK003459], the viability at 28.5 h, 10 µM was 92.2%.
On the same count and under the same terms, the figure for `COC(=O)C1(Cc2ccccc2)CN(C(=O)OC(C)(C)C)CCC1=O` (stereo not drawn) [CBK003486] is 93.2%.
Still for that read-out and setting: the figure for `COc1ccc([N+](=O)[O-])cc1N1CCN(C(=O)OC(C)(C)C)CC1` [CBK003504] is 92.3%; for `CC(C)(C)OC(=O)N1CCN(c2cc(Cl)nc(N)n2)CC1` [CBK003505] it is 91.8%.
On the same count and under the same terms, under `COc1ccc(-c2nc(O)cc(C(F)(F)F)n2)cc1` [CBK003515] stands 86.3%; under `Cn1c2c(c3ccccc31)C(=O)NCC2` [CBK003517], 89%; under `Cc1cc2nc(NC(=N)N)[nH]c2cc1C` [CBK003532], 93.5%.
Consider `COc1ccc([C@@]23CCC(N)C[C@@H]2N(C)CC3)cc1OC` (stereo partly drawn) [CBK003576], for which the viability at 28.5 h, 10 µM turned out to be 114%.
As for `OC(COc1cccc2c1CCCC2)CN1CCC(O)(c2ccc(Cl)c(C(F)(F)F)c2)CC1` (stereo not drawn) [CBK003581], the viability at 28.5 h, 10 µM was 102%.
On to `O=C(c1ccc(F)cc1)C1CCN(CC(O)COc2cccc3c2CCCC3)CC1` (stereo not drawn) [CBK003583], for which the viability at 28.5 h, 10 µM was determined as 101%.
Same read-out and setting: the figure for `OC(COc1cccc2c1CCCC2)CN1CCC(O)(c2ccc(Br)cc2)CC1` (stereo not drawn) [CBK003584] is 72%.
Still for that read-out and setting: under `Cc1ccc(N(CCc2cc(C(F)(F)F)cc(C(F)(F)F)c2)C(=O)CN)cc1NC(=O)CN(C)C` [CBK003630T] stands 84.5%; under `COc1cccc2ccn(S(=O)(=O)c3ccsc3C(=O)O)c12` [CBK003636], 96.1%.
`CCC1CN(Cc2ccccc2)CCN1c1cncc(Cl)n1` (stereo not drawn) [CBK003645]: the viability at 28.5 h, 10 µM came to 112%.
The same measure, in the same setting: the figure for `Oc1cc(C(F)(F)F)nc(CCc2ccc(Cl)cc2)n1` [CBK003678] is 107%; for `COc1ccc(CCc2nc(C(F)(F)F)cc(=O)[nH]2)cc1` [CBK003679] it is 87.3%; for `Cc1ccc(S(N)(=O)=O)cc1NC(=O)c1ccc(Br)o1` [CBK003693] it is 91.6%.
Still for that read-out and setting: the figure for `O=C(NCc1ccc(Cl)cc1)C1CCCN1c1nc(O)cc(C(F)(F)F)n1` (stereo not drawn) [CBK003706] is 115%.
The same measure, in the same setting: the figure for `CCNC(=S)N[C@H]1CC[C@@]2(Cc3ccccc3Cl)CCN(C)[C@H]2C1` [CBK003708] is 92%; for `Oc1cc(C(F)(F)F)nc(NCc2cccc3ccccc23)n1` [CBK003716] it is 92.7%; for `CCOC(=O)c1ccccc1NC(=O)n1ccc2c(N3CCNCC3)cccc21` [CBK003731C] it is 50.8%.
Take `CC(C)(C)c1ccc(NC(=O)n2ccc3c(N4CCNCC4)cccc32)cc1` [CBK003736C]: the viability at 28.5 h, 10 µM was found to be 27%.
With `CCCCc1ccc(S(=O)(=O)n2ccc3c(N4CCNCC4)cccc32)cc1` [CBK003744C], the viability at 28.5 h, 10 µM turned out to be 78.7%.
For `O=C(Nc1ccc(OCc2ccoc2)cc1C(=O)O)c1ccc(Cl)cc1Cl` [CBK003768D], the viability at 28.5 h, 10 µM stood at 87.5%.
Regarding `CCCCNC(=S)NC1CC[C@@]2(c3ccc(Br)cc3)CCN(C)[C@H]2C1` (stereo partly drawn) [CBK003781], the viability at 28.5 h, 10 µM came to 111%.
In the case of `CCOC(=O)c1sc(NS(=O)(=O)c2ccc(-c3ccccc3)cc2)nc1C` [CBK003784], the viability at 28.5 h, 10 µM was 106%.
On the same count and under the same terms, under `O=C(Cc1ccc(NS(=O)(=O)c2cc(Cl)c(Cl)s2)nc1)N1CCOCC1` [CBK003790] stands 96.5%; under `OC(COc1cccc2c1CCCC2)CN1CCC(Cc2ccccc2)CC1` (stereo not drawn) [CBK003829], 94.7%; under `COc1ccc(-c2cc(=O)[nH]c(N3CCN(C)CC3)n2)cc1` [CBK003849], 90.4%.
On the same count and under the same terms, the figure for `CCCCc1cc(=O)[nH]c(N2CCOCC2)n1` [CBK003851] is 102%.
On the same count and under the same terms, under `CC1CN(C(=O)OC(C)(C)C)CCN1c1nc2ccccc2nc1O` (stereo not drawn) [CBK003877C] stands 116%; under `Nc1nc2c(O)cccc2s1` [CBK003892B], 85.6%.
As for `CN1CCN(c2nccnc2OCC2COc3ccccc3O2)CC1` (stereo not drawn) [CBK003899C], the viability at 28.5 h, 10 µM amounted to 96.7%.
Turning to `NCc1ccc(OC2CCNCC2)cc1` [CBK003920T], the viability at 28.5 h, 10 µM stood at 88.7%.
For the compound `CC(C)(C)OC(=O)N1CCC(CNS(C)(=O)=O)CC1` [CBK003925], the viability at 28.5 h, 10 µM was determined as 78%.
Same read-out and setting: under `O=S(=O)(Nc1cccc(C(F)(F)F)c1)c1ccc(N2CCCNCC2)c2ccccc12` [CBK003929C] stands 86.4%.
On the same count and under the same terms, under `O=S(=O)(Nc1ccccc1OC(F)(F)F)c1ccc(N2CCNCC2)c2ccccc12` [CBK003933C] stands 92.8%; under `O=S(=O)(Nc1cccc(OC(F)(F)F)c1)c1ccc(N2CCNCC2)c2ccccc12` [CBK003935C], 111%; under `FC(F)(F)c1ccc(N2CCNCC2)nc1SCc1ccccc1Cl` [CBK003964A], 98.2%.
Same read-out and setting: under `FC(F)(F)c1ccc(N2CCNCC2)nc1OCc1ccc2c(c1)OCCO2` [CBK003994A] stands 113%; under `O=C(Nc1cc(N2CCNCC2)ncn1)c1ccccc1` [CBK004215T], 94.3%.
`COc1ccc(CCC(=O)Nc2cc(N3CCNCC3)ncn2)cc1` [CBK004231T]: the viability at 28.5 h, 10 µM was determined as 92.1%.
Same read-out and setting: under `O=C(Nc1ccccn1)C1CCCN1c1nc(O)cc(C(F)(F)F)n1` (stereo not drawn) [CBK004254] stands 91%.
Still for that read-out and setting: the figure for `CCNC(=S)N[C@H]1CC[C@@]2(Cc3ccc(OC)cc3)CCN(C)[C@H]2C1` [CBK004257] is 101%; for `CCCCNC(=S)N[C@H]1CC[C@@]2(Cc3ccc(OC)cc3)CCN(C)[C@H]2C1` [CBK004258] it is 108%.
The same measure, in the same setting: under `COc1ccc(C[C@@]23CC[C@@H](NC(=S)NCc4ccccc4)C[C@@H]2N(C)CC3)cc1` [CBK004262] stands 88.4%; under `O=C(NCc1cccs1)C1CCCN1c1nc(O)cc(C(F)(F)F)n1` (stereo not drawn) [CBK004299], 91.3%.
With `O=C(Nc1nccc(N2CCNCC2)n1)C1CCCC1` [CBK004302T], the viability at 28.5 h, 10 µM is 113%.
On the same count and under the same terms, the figure for `O=C(Nc1ccccc1F)C1CCCN1c1nc(O)cc(C(F)(F)F)n1` (stereo not drawn) [CBK004307] is 105%.
Still for that read-out and setting: the figure for `CCN(CC)CCOC(=O)c1ccc(N)cc1` [CBK004330C] is 84.5%; for `COC(=O)c1sccc1NS(=O)(=O)c1ccc2ccccc2c1` [CBK004500] it is 103%; for `Brc1ccccc1OCCc1ccccc1` [CBK004519] it is 95.4%.
The same measure, in the same setting: the figure for `COc1ccc(C2OCCN2C(C)=O)cc1` (stereo not drawn) [CBK004536] is 80.8%; for `Cc1c(Cl)cccc1S(=O)(=O)Nc1ccsc1C(=O)O` [CBK004549] it is 97.7%; for `O=C(O)c1sccc1NS(=O)(=O)Cc1ccccc1` [CBK004561] it is 92.3%.
`O=C(Nc1ccc(F)cc1)c1sccc1NS(=O)(=O)Cc1ccccc1` [CBK004574]: the viability at 28.5 h, 10 µM was 106%.
Still for that read-out and setting: the figure for `O=C(Nc1ccc(F)cc1)c1sccc1NS(=O)(=O)c1cc(F)c(Br)cc1F` [CBK004586] is 94.4%.
Still for that read-out and setting: under `COc1ccc(Br)cc1S(=O)(=O)Nc1ccsc1C(=O)Nc1ccc(F)cc1` [CBK004593] stands 97.7%.
The same measure, in the same setting: the figure for `CCN(CC)C(=O)c1sccc1NS(=O)(=O)c1ccc(OC)c(OC)c1` [CBK004596] is 94.3%; for `CCN(CC)C(=O)c1sccc1NS(=O)(=O)c1cc(Br)c(Cl)s1` [CBK004599] it is 98.3%.
In the case of `Cc1noc(C)c1S(=O)(=O)Nc1ccsc1C(=O)Nc1ccc(F)cc1` [CBK004604], the viability at 28.5 h, 10 µM worked out at 86.3%.
Still for that read-out and setting: the figure for `COc1ccc(S(=O)(=O)Nc2ccsc2C(=O)N2CCN(C)CC2)cc1OC` [CBK004627] is 95.3%; for `CN1CCN(C(=O)c2sccc2NS(=O)(=O)c2ccc3ccccc3c2)CC1` [CBK004631] it is 91.7%; for `CCNC(=S)N[C@@H]1CC[C@@]2(c3ccc([N+](=O)[O-])cc3)CCN(CCc3ccccc3)[C@H]2C1` [CBK004677] it is 90.5%.
Same read-out and setting: under `OCc1cccc2c3c(n(Cc4ccccc4)c12)CCCC3` [CBK004693] stands 91.3%; under `CCOC(=O)CNS(=O)(=O)c1cccc(Cl)c1C` [CBK004702], 103%; under `CCOC(=O)c1cnc(NS(=O)(=O)c2cccc(Cl)c2C)nc1C` [CBK004707], 105%.
Same read-out and setting: the figure for `O=C(Nc1ccc(N2CCNCC2)nc1)C1CCC1` [CBK004743T] is 86.2%.
With `COCCC(=O)Nc1ccc(N2CCNCC2)nc1` [CBK004749T], the viability at 28.5 h, 10 µM is 92.2%.
The same measure, in the same setting: under `CC(C(=O)Nc1cccc(N2CCNCC2)c1)c1ccccc1` (stereo not drawn) [CBK004770T] stands 95.6%.
The same measure, in the same setting: the figure for `CN1CCN(c2nc(Nc3ccc(Cl)cc3)nc(Oc3ccccc3)n2)CC1` [CBK004778] is 107%; for `Cc1ccc2[nH]c3c(c2c1)CCNCC3` [CBK004811] it is 98.3%; for `Cc1cc(=O)oc(-c2ccccc2)c1C#N` [CBK004842] it is 95%.

The same series, now with this note: human, hela cells, % viability, bulk resorufin, single well.
On to `CN(C(=O)c1ccc(Cl)c(Cl)c1)[C@H]1CCC[C@H]1N1CCCC1` [CBK003411C], for which the viability at 28.5 h, 10 µM is 90%.
Still for that read-out and setting: the figure for `CN1CCC(C#N)(c2ccccc2F)CC1` [CBK003511] is 99.3%; for `COC(=O)c1ccccc1NC(C)=O` [CBK003522] it is 107%.
